Laboratory results taken from publication PMC10388311, “Innovative Strategy toward Mutant CFTR Rescue in Cystic Fibrosis: Design and Synthesis of Thiadiazole Inhibitors of the E3 Ligase RNF5” (Journal of Medicinal Chemistry, 2023).
Converted amounts (≈) assume the structure as drawn. “Also recorded” adds a separate entry of the source.

Experiments:
[1] = test system: CFBE41o– cells; test: Apoptosis assay (Hoechst 33342 / propidium iodide, high-content imaging); format: cell-based, human; conditions: 24 h, 100 μM
Description: We performed a preliminary evaluation of the effect of chronic treatment with selected analogues on the proliferation and apoptosis of CFBE41o^– cells (Figure 7). Indeed, RNF5 can modulate cell motility and proliferation by regulating paxillin ubiquitylation and thus its degradation.[53] For the proliferation assay, CFBE41o^– cells stably co-expressing F508del-CFTR and the HS-YFP were treated with test compounds (5 μM), VX-809 (1 μM), or vehicle alone (DMSO) for 48 h. Cell proliferation was then monitored by measuring the area covered by the cells based on the YFP signal. For the apoptosis assay, 24 h after plating, CFBE41o^– cells stably expressing F508del-CFTR were treated with test compounds (5, 20, and 100 μM), VX-809 (1 μM), MG132 (50 μM), or vehicle alone (DMSO) for 24 h. Cell nuclei were then counterstained with Hoechst 33342 and propidium iodide to visualize the total and apoptotic cell count, respectively, and imaged by using an Opera Phenix high-content screening system.
CFBE41o^– cells stably expressing F508del-CFTR and the HS-YFP were plated at a low density (5000 cell/well) on 96-well plates suitable for high-content imaging. […] Cell proliferation was monitored (by exploiting the YFP signal to determine the area covered by cells) for 48 h using the Opera Phenix (PerkinElmer) high-content screening system. […] Data are expressed as means ± SEM, n = 6. […]

[2] = Solubility and aggregation in PBS buffer by NMR (SPAM filter, 1H 1D and WaterLOGSY); format: physicochemical; conditions: PBS pH 7.5, 1 μM ZnCl2, 1 mM DTT, 10% D2O, 1% DMSO-d6; for solubility: PBS buffer, aqueous buffer, kinetic from dmso stock, theoretical concentration 20 μM, read-out: solubility in PBS buffer by NMR, 20 μM; for aggregation in PBS buffer by NMR: WaterLOGSY; for solubility at 50 µM: theoretical concentration 50 μM; for solubility at 100 µM: theoretical concentration 100 μM
Excerpt: Under these circumstances, it was decided to explore the solubility of all the synthetized compounds, regardless of their biological activities, to find a suitable candidate for the validation of our working hypothesis, i.e., that the compounds exert their activities by directly binding to RNF5. For that, we first calculated the predicted octanol/water partition coefficient (log Po/w) and the predicted aqueous solubility (log S) of all the analogues by QikProp (Schrödinger Release 2022-1: QikProp, Schrödinger, LLC, New York, NY, 2021, Table S1). […] To shrink down the number of compounds for solubility experiments, just the ones that had −2.0 < log Po/w < 6 and −6.5 < log S <0.5 values were selected. Among them, the PBS solubility was determined for five representative analogues: (i) 12 and 29 bearing different substituents on the benzyl group A; (ii) 34 and 40 showing the replacement of rings B and C with pyridine-4-yl moieties; (iii) 42 in which the N-phenylbenzamidine portion was replaced with a pyridine-2-yl moiety (Table 1).
All the NMR experiments were recorded at 298 K using a 5 mm CryoProbe QCI ^1H/^19F–^13C/^15N–D quadruple resonance, a shielded z-gradient coil, and an automatic sample changer SampleJet NMR system with temperature control. The solubility of the compounds were evaluated by ^1H 1D experiments and aggregation by WaterLOGSY, testing the compounds in buffer PBS pH 7,5, 1 μM ZnCl2, 1 mM DTT, 10% D2O (for the lock signal), and 1% DMSO-d6 at the theoretical concentrations of 20, 50, and 100 μM in the presence of 200 μM 4-trifluoromethyl benzoic acid (internal reference). For all samples, a 1D ^1H NMR experiment was recorded, the water suppression was obtained using the standard NOESY (nuclear Overhauser effect spectroscopy) preset Bruker pulse sequence, with 64k data points, a spectral width (sw) of 30 ppm, 64 scans, acquisition time (aq) of 1.835 s, a relaxation delay (d1) of 4 s, and a mixing time of 10 ms. […] The data were multiplied by an exponential window function with 1 Hz line broadening prior to Fourier transformation. For NMR binding experiments, the compounds were tested at 50 μM in buffer PBS pH 7.5, 1 μM ZnCl2, 1 mM DTT, 10% D2O (for the lock signal), and 1% DMSO-d6 in the absence and in the presence of 3 μM RNF5. WaterLOGSY experiments were recorded with the same parameters used in solubility assays, but with a higher number of scans (512); STD experiments were recorded with 128 scans, with two on (0.7 and 1 ppm) and one off (−50 ppm) resonance spectra, a Gaussian-shaped train pulse of 50 ms each was employed, with a total saturation time of the protein envelope of 5, 3, 2, 1.5, 1, or 0.5 s. A T1ρ filter of 2 ms was employed in STD experiments to eliminate the background signals from the protein. The STD spectrum was obtained by subtraction of the on-resonance spectrum from the off-resonance spectrum. Subtraction was performed by phase cycling to minimize artifacts arising from magnet and temperature instabilities.

[3] = molecular target: T1, F508del-CFTR in CFBE41o– cells (Homo sapiens, UniProt Q99942); test: HS-YFP microfluorimetric assay of F508del-CFTR rescue (corrector activity); format: cell-based; conditions: CFBE41o– cells co-expressing F508del-CFTR and HS-YFP, 24 h treatment, Figure 5
T1 sequence (Q99942 2-180): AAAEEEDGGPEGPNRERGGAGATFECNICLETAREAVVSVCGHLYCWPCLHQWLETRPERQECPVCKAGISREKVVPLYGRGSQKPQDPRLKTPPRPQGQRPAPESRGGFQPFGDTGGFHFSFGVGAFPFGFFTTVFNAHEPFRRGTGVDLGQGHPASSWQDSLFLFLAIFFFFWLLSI
T1 sequence (P13569 with tags, fused parts or gaps DEL508-508 partner): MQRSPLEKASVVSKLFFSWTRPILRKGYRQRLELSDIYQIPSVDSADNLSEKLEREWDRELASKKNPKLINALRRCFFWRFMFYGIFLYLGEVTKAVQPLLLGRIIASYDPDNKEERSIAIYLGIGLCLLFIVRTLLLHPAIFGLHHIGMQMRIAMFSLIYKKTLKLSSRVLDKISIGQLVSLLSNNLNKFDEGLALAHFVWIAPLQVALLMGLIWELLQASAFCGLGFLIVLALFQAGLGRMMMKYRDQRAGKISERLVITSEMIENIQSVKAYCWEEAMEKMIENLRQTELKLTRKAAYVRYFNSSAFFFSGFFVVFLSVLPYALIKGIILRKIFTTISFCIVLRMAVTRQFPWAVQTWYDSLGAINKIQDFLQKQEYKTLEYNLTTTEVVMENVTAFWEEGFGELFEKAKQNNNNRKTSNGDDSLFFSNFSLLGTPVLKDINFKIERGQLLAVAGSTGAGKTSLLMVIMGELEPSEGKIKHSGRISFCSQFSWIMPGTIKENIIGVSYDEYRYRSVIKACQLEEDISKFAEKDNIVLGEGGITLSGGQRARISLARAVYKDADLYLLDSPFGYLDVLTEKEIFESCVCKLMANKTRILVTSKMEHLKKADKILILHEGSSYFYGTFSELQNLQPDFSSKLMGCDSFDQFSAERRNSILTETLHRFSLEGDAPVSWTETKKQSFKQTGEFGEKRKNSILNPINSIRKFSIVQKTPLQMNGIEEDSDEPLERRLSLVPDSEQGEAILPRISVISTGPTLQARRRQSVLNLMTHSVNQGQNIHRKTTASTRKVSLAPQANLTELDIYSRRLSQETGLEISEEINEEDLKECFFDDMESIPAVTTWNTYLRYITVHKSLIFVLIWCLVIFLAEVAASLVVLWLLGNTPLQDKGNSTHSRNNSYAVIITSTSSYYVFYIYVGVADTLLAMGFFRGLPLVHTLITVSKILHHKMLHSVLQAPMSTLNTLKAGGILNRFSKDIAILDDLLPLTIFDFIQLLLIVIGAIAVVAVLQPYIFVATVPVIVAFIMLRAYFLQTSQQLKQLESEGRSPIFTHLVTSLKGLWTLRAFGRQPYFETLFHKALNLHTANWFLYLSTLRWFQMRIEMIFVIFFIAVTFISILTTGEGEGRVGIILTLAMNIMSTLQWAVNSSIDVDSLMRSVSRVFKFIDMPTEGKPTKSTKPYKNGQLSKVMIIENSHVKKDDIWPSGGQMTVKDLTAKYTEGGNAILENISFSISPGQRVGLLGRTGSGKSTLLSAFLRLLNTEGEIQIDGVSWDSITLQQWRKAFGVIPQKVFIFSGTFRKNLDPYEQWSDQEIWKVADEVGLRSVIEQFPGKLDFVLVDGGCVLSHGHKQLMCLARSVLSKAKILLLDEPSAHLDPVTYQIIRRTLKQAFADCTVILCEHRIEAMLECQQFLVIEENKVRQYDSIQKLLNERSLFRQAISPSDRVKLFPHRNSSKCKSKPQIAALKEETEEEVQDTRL
Description: As a primary screen, the new thiadiazole derivatives 1–46 (Table 1) were tested for their ability to rescue the F508del-CFTR trafficking defect in CFBE41o^– cells, stably co-expressing F508del-CFTR and the HS-YFP (Figure 5). This cell line has been extensively used by our group, in combination with the microfluorimetric assay based on the HS-YFP, to identify and characterize many CFTR correctors.[39],[47] This assay relies on the hypothesis that RNF5 inhibition results in increased mutant CFTR processing and activity. Therefore, it can easily identify putative RNF5 inhibitors, but not other types of RNF5-binding compounds that could have no effect or have a negative effect on CFTR function, such as RNF5 activators (see analog-1). Thus, we opted for this assay as our primary aim was the identification of RNF5 inhibitors as a possible therapeutic strategy in CF. Twenty-four hours after seeding on 96-well plates, CFBE41o^– cells stably expressing F508del-CFTR and the HS-YFP were treated with test compounds at the desired concentration, one compound per well. Cells treated with vehicle alone (DMSO) and with corrector VX-809 (1 μM), respectively, served as negative and positive controls. At the time of the assay, cells were washed with PBS containing (in […]) 137 NaCl, 2.7 KCl, 8.1 Na2HPO4, 1.5 KH2PO4, 1 CaCl2, and 0.5 MgCl2. Cells were then incubated for 25 min with […] of PBS plus forskolin (20 μM) and VX-770 (1 μM) to maximally stimulate F508del-CFTR. Cells were then transferred to a microplate reader (FluoStar Galaxy; BMG Labtech, Offenburg, Germany) for CFTR activity determination. The plate reader was equipped with high-quality excitation (HQ500/20X: 500 ± 10 nm) and emission (HQ535/30M: 535 ± 15 nm) filters for YFP (Chroma Technology). Each assay comprised a continuous 14 s fluorescence reading and 2 s before and 12 s after injection of […] of an iodide-containing solution (PBS with Cl^– replaced by I^–; final I^– concentration […]). Data were normalized to the initial background-subtracted fluorescence. To determine the I^– influx rate, the final 11 s of the data for each well was fitted with an exponential function to extrapolate initial slope (dF/dt). Reproducibility of results was confirmed by performing three independent experiments. CFBE41o^– cells co-expressing F508del-CFTR and the HS-YFP were reverse-transfected with 50 nM (final concentration) siRNAs (Stealth, Life Technologies) in the presence of lipofectamine 2000 as a transfection agent. The following day, the medium was changed, and the cells were incubated at 37 °C for additional 24 h treated with test compounds at the desired concentration, prior to processing the cells for the YFP-based functional assay.

[4] = test system: ATG4B-mediated basal autophagy in F508del-CFTR-expressing CFBE41o– cells; test: Labeling of autophagic vacuoles with monodansylcadaverine (MDC); format: cell-based, human; conditions: test compounds 5 μM 24 h; torin-1 20 nM and SAR-405 2 μM in the last 3 h
Excerpt: To further support our hypothesis that CFTR rescue following treatment with test compounds was indeed due to RNF5 inhibition, we considered additional biological processes known to be regulated by RNF5 ligase activity. To this aim, we focused our attention on ATG4B, a known regulator of basal autophagy, whose degradation is mediated by RNF5 activity.[54]In vivo ubiquitination experiments previously confirmed that inh-2 inhibits ATG4B degradation, thus increasing the basal level of autophagy.[40] […] We thus evaluated the effect of inh-2 analogues on induction of the autophagy pathway. To this aim, we monitored the formation of autophagic vacuoles in F508del-CFTR-expressing CFBE41o^– cells (Figure 8) by using the autolysosome marker monodansylcadaverine (MDC). MDC accumulates inside autophagosomes. After fusion of autophagosomes with lysosomes, MDC fluorescence increases due to the acidic environment.[55] Therefore, F508del-CFTR-expressing CFBE41o^– cells were treated for 24 h with test compounds (5 μM), VX-809 (1 μM), or DMSO alone (vehicle). In the last 3 h of incubation, we added torin-1 (20 nM), a known autophagy inducer, and SAR-405 (2 μM), a potent inhibitor of the autophagic pathway. The cells were then loaded with MDC and evaluated by high-content confocal imaging to detect signal spots (corresponding to autophagic vacuoles) in each cell.
CFBE41o^– cells stably expressing F508del-CFTR and the HS-YFP were plated (50,000 cells/well) on good-quality clear-bottom 96-well black microplates suitable for high-content imaging. After 24 h, cells were treated with test compounds or DMSO (as the negative control). […] After 24 h, cells were incubated with 50 μM MDC (Sigma-Aldrich) in PBS at 37 °C for 10 min.[62] After incubation, cells were washed three times with PBS and immediately analyzed. High-content imaging and data analysis were performed using the Opera Phenix (PerkinElmer) high-content screening system. Wells were imaged in confocal mode using a 40× water-immersion objective. The MDC signal was laser-excited at 405 nm, and the emission wavelengths were collected between 435 and 550 nm. Data analysis of MDC spot number was performed using the Harmony software (ver 4.5) of the Opera Phenix high-content system. Data are expressed as means ± SEM, n = 3 independent experiments. Statistical significance was tested by parametric ANOVA followed by the Dunnet multiple comparisons test (all groups against the control group).

[5] = molecular target: T1, F508del-CFTR in CFBE41o– cells; parameters: method as in PMID 29754957; conditions: cited from earlier work

| solubility [2] | aggregation in PBS buffer by NMR [2] | solubility at 50 µM [2] | solubility at 100 µM [2] | F508del-CFTR corrector activity compared with inh-2 (CFTR activity, primary screen) [3] | Compound | cell apoptosis [1] | number of autophagic vacuoles (MDC signal spots) [4] | CFTR corrector activity (in words) [5] |
| --- | --- | --- | --- | --- | --- | --- | --- | --- |
| < 5 µM | no | <5 µM | <5 µM | increased activity | Cc1ns/c(=N\C(=N\c2ccccc2)c2ccccc2)n1Cc1cccc(O)c1 [Compound 17, (E)-N-((Z)-4-(3-Hydroxybenzyl)-3-methyl-1,2,4-thiadiazol-5(4H)-ylidene)-N′-phenylbenzimidamide] | markedly increased cell apoptosis |  |  |
| 10 µM (≈ 3.85 µg/mL) | no |  |  | maintaining the activity equal to inh-2 | Cc1ns/c(=N\C(=N\c2ccccc2)c2ccncc2)n1Cc1ccccc1 [Compound 34, (E)-N-((Z)-4-Benzyl-3-methyl-1,2,4-thiadiazol-5(4H)-ylidene)-N′-phenylisonicotinimidamide] |  | significantly decreased |  |
| < 5 µM | no | <5 µM | <5 µM |  | Cc1ns/c(=N\C(=N\c2ccccc2)c2ccccc2)n1-c1ccccc1 [analog-1, reference compound] |  | significantly decreased | no activity as a CFTR corrector; also recorded: lack of CFTR corrector activity |
